Test results published in patent publication US7547729B2, “1,3-diphenylprop-2-en-1-one derivative compounds, preparation method thereof and uses of same” (Genfit, priority 2004, dated 2009).

Columns and labels:
PPARα [1] = target: T1, PPARα (Homo sapiens, UniProt Q07869); assay: PPARα/Gal4 transactivation system in COS-7 cells; assay type: cell-based; settings: 24 hours
T1 construct: expressed in transfected cells; host or cells: COS-7 cells
T1 sequence (Q07869 239-466 limits assumed): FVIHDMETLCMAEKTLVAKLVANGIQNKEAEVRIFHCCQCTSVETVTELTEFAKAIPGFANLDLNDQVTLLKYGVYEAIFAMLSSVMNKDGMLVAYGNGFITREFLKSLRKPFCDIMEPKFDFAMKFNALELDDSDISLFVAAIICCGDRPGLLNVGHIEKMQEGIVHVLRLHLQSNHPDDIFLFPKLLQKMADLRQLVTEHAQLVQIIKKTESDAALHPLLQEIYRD
Protocol: (§1) COS-7 cells were incubated with different concentrations of the inventive compounds for 24 hours. The results are expressed as the induction factor (ratio of luminescent signal obtained with the compound and that observed without the compound) after the different treatments.
(§2) PPAR activation was tested in vitro in RK13 epitheloid or COS-7 cell lines by measuring the transcriptional activity of chimeras composed of the DNA binding domain of the yeast gal4 transcription factor and the ligand binding domain of the different PPARs. These latter results were then confirmed in cell lines according to the following protocols:
(§3) RK13 cells were from ECACC (Porton Down, UK), COS-7 cells were from the ATCC (American Type Culture Collection) and were grown in DMEM medium supplemented with 10% (VN) fetal calf serum, 100 U/ml penicillin (Gibco, Paisley, UK) and 2 mM L-glutamine (Gibco, Paisley, UK). The culture medium was changed every two days. Cells were kept at 37° C. in a humidified 95% air/5% CO2 atmosphere.
(§4) The plasmids pG5TkpGL3, pRL-CMV, pGal4-hPPARα, pGal4-hPPARγ, pGal4-hPPARδ and pGal4-φ have been described by Raspe, Madsen et al. (1999). The pGal4-mPPARα, pGal4-hPPARγ and pGal4-hPPARδ constructs were obtained by cloning into the pGal4-φ vector of PCR-amplified DNA fragments corresponding to the DEF domains of the human PPARα, PPARγ and PPARδ nuclear receptors.
(§5) RK13 cells were seeded in 24-well culture dishes at 5×10^4 cells/well, COS-7 cells in 96-well culture dishes at 5×10^4 cells/well and transfected for 2 hours with the reporter plasmid pG5TkpGL3 (50 ng/well), the expression vectors pGal4-φ, pGal4-mPPARα, pGal4-hPPARα, pGal4-hPPARγ, pGal4-hPPARδ (100 ng/well) and the transfection efficiency control vector pRL-CMV (1 ng/well) according to the previously described protocol (Raspe, Madsen et al. 1999), then incubated for 36 hours with the test compounds. At the end of the experiment, the cells were lysed (Gibco, Paisley, UK) and luciferase activity was determined with a Dual-Luciferase™ Reporter Assay System kit (Promega, Madison, Wis., USA) for RK13 cells and Steady Glow Luciferase (Promega) for COS-7 cells according to the supplier's instructions as previously described. The protein content of the cell extracts was then measured with the Bio-Rad Protein Assay (Bio-Rad, Munich, Germany) as directed by the supplier.

LDL = assay: Protection against LDL oxidation by copper (conjugated diene formation); assay type: biochemical; settings: 10^−4M
Protocol: Unless otherwise indicated, the reagents were from Sigma (St Quentin, France). LDL were prepared according to the method described by Lebeau et al. (Lebeau, Furman et al. 2000).
The solutions of test compounds were prepared at 10^−2 M concentration in bicarbonate buffer (pH 9) and diluted in PBS to obtain final concentrations ranging from 0.1 to 100 μM
Prior to oxidation, EDTA was removed from the LDL preparation by dialysis. Oxidation then took place at 30° C. by adding 100 μl of 16.6 μM CuSO4 solution to 160 μL of LDL (125 μg protein/ml) and 20 μl of a test compound solution. The formation of dienes, the species under observation, was followed by measuring optical density at 232 nm in the samples treated with the compounds in the presence or absence of copper. Optical density at 232 nm was measured every 10 minutes for 8 hours in a thermostated spectrophotometer (Tecan Ultra 380). The analyses were performed in triplicate. The compounds were considered to have antioxidant activity when they induced a longer lag phase and reduced the rate of oxidation and the amount of dienes formed in comparison with the control sample.

PPARδ = target: T2, PPARδ (Homo sapiens, UniProt Q03181); assay: PPARδ/Gal4 transactivation system in COS-7 cells; assay type: cell-based; settings: 24 hours
T2 construct: expressed in transfected cells; host or cells: COS-7 cells
T2 sequence (Q03181 211-439 limits assumed): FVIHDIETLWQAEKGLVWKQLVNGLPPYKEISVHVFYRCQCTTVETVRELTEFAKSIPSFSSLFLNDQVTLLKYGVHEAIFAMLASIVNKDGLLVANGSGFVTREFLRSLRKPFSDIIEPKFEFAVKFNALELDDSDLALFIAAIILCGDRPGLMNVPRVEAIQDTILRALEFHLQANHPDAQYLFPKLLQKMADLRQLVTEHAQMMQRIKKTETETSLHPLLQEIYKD
Protocol: as §1, §2, §3, §4, §5

naive CD4+ T cells = assay: Mixed Lymphocyte Reaction (MLR), BrdU incorporation; assay type: cell-based
Protocol: FIG. 23 illustrates a Mixed Lymphocyte Reaction (MLR) carried out in the presence of increasing amounts of dendritic cells treated or not with compound 31 and incubated with naive CD4+ T cells for seven days. T cell proliferation was determined by BrdU (bromodeoxyuridine) incorporation.
For this experiment, increasing amounts of mature dendritic cells (treated or not with the compound) were incubated with a fixed amount of naive CD4+ T cells from another donor. After a 5-day incubation, BrdU (bromodeoxyuridine) was added for 24 hours and the incorporation thereof in T cells was determined by ELISA with anti-BrdU antibodies coupled to chemiluminescent tags.

PPARγ [2] = target: T3, PPARγ (Homo sapiens, UniProt P37231); assay: PPARγ/Gal4 transactivation system in COS-7 cells; assay type: cell-based; settings: 24 hours
T3 construct: expressed in transfected cells; host or cells: COS-7 cells
T3 sequence (P37231 238-503 limits assumed): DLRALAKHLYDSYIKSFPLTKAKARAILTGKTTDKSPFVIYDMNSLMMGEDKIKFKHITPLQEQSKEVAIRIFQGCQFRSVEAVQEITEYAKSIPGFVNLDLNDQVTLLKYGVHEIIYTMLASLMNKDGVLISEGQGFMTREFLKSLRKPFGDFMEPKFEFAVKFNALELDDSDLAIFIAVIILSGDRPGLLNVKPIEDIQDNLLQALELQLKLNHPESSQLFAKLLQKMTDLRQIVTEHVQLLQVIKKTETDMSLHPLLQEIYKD
Protocol: as §1, §2, §3, §4, §5

PPARα [3] = target: T1, PPARα; assay: PPARα/Gal4 transactivation system in RK13 cells; assay type: cell-based; settings: 24 hours
Protocol: (§6) RK13 cells were incubated with the compound 2 at concentrations comprised between 0.01 and 10 μM for 24 hours. The results are expressed as the induction factor (ratio of luminescent signal obtained with the compound and that observed without the compound) after the different treatments.
as §2, with “protocols: […]” for “protocols:”
as §5, with “At the end of the experiment, the cells were lysed (Gibco, Paisley, UK) and luciferase activity was determined with a Dual-Luciferase™ Reporter Assay System kit (Promega, Madison, Wis., USA) for RK13 cells and Steady Glow Luciferase (Promega) for COS-7 cells according to the supplier's instructions as previously described.” left out

[4] = tested on: Apo E2/E2 transgenic mice; assay: Effects on triglyceride and cholesterol metabolism in Apo E2/E2 transgenic mice; assay type: in vivo; settings: gavage, 50 mg/kg/day, seven days
Protocol: FIGS. 19a, 19b, 19c, 19d, 20a, 20b, 20c and 20d illustrate the effects of treatment with compound 2 (Cpd2), compound 13 (Cpd13), compound 33 (Cpd33) and compound 39 (Cpd39) on triglyceride and cholesterol metabolism in Apo E2/E2 transgenic mice treated by gavage with the compound at a dose of 50 mg/kg/day, for seven days.
Apo E2/E2 transgenic mice were housed in a 12-hour light/dark cycle at a constant temperature of 20±3° C. After a 1-week acclimatization period, the mice were weighed and divided into groups of 6 animals selected such that the distribution of body weight was uniform. The test compounds were suspended in carboxymethylcellulose and administered by gastric lavage at the indicated doses, once a day for 7 days. Animals had access to food and water ad libitum. At the end of the experiments, animals were weighed and sacrificed under anesthesia. Blood was collected on EDTA. Plasma was isolated by centrifugation at 3000 rpm for 20 minutes. Liver samples were removed and stored frozen in liquid nitrogen for later analysis.
Lipid concentrations in plasma (total cholesterol and free cholesterol, triglycerides and phospholipids) were determined by a colorimetric assay (Boehringer, Mannheim, Germany) according to the supplier's instructions. Plasma concentrations of apolipoproteins AI, AII and CIII were determined as previously described (Raspe et al. 1999, Asset G et al., Lipids, 1999).

PPARγ [5] = target: T3, PPARγ; assay: PPARγ/Gal4 transactivation system in RK13 cells; assay type: cell-based; settings: 24 hours
Protocol: as §6, §2, §3, §4, §5

Molecule `Cc1cc(/C=C/C(=O)c2c(C)c(C)c(C)c(C)c2C)cc(C)c1OC(C)(C)C(=O)O` [compound 31, 1-(2,3,4,5,6-Pentamethylphenyl)-3-(4-carboxydimethylmethyloxy-3,5-dimethylphenyl)prop-2-en-1-one] has an Induction factor (PPARα [1]; 0.001 μM) of 1.10, an Induction factor (PPARα [1]; 0.003 μM) of 1.09 and an Induction factor (PPARα [1]; 0.01 μM) of 1.23. The Induction factor (PPARα [1]; 0.03 μM) was 1.23, the Induction factor (PPARα [1]; 0.1 μM) was 1.23 and the Induction factor (PPARα [1]; 0.3 μM) was 1.73. The Induction factor (PPARα [1]; 1 μM) was 1.88, the Induction factor (PPARα [1]; 3 μM) was 3.69 and the Induction factor (PPARα [1]; 10 μM) was 6.03. The “kinetics of LDL oxidation (lag phase)” value (LDL; FIG. 5a, no control value printed) was 124.5 min, the LDL oxidation rate (LDL; FIG. 5b, absence of compounds 2) was 1.4 nmol/min/mg and the “total amount of dienes formed” value (LDL; FIG. 5c, absence of compounds 386) was 352 nmol/mg. The Induction factor (PPARδ; 0.001 μM) was 1.00, the Induction factor (PPARδ; 0.003 μM) was 1.05 and the Induction factor (PPARδ; 0.01 μM) was 1.09. For the same molecule, the Induction factor (PPARδ; 0.03 μM) was 1.16, the Induction factor (PPARδ; 0.1 μM) was 1.35 and the Induction factor (PPARδ; 0.3 μM) was 2.67. The Induction factor (PPARδ; 1 μM) was 4.12, the Induction factor (PPARδ; 3 μM) was 10.82 and the Induction factor (PPARδ; 10 μM) was 11.70. For the same molecule, the “capacity of treated dendritic cells to induce proliferation of naive CD4+ T cells” value (naive CD4+ T cells) was “lower capacity”, the Induction factor (PPARγ [2]; 0.001 μM) was 1.44 and the Induction factor (PPARγ [2]; 0.003 μM) was 2.19. It also gave an Induction factor (PPARγ [2]; 0.01 μM) of 3.06, an Induction factor (PPARγ [2]; 0.03 μM) of 4.87 and an Induction factor (PPARγ [2]; 0.1 μM) of 5.99. It also gave an Induction factor (PPARγ [2]; 0.3 μM) of 6.96, an Induction factor (PPARγ [2]; 1 μM) of 7.05 and an Induction factor (PPARγ [2]; 3 μM) of 7.79.
In the case of `CCCCCSCCOc1ccc(C(=O)/C=C/c2cc(C)c(OC(C)(C)C(=O)O)c(C)c2)cc1` [compound 2, 1-(4-(Pentylthioethyloxy)phenyl)-3-(4-carboxydimethylmethyloxy-3,5-dimethylphenyl)prop-2-en-1-one], the Induction factor (PPARα [3]; 1 μM) is reported as 8.83, the Induction factor (PPARα [3]; 10 μM) is reported as 18.49 and the “lag phase of conjugated diene formation” value (LDL; FIG. 1a, copper alone 120 minutes) is reported as 314 min. For the same molecule, the “rate of diene formation” value (LDL; FIG. 1b, copper alone 1.8) was 0.1 nmol/min/mg of LDL, the “maximum amount of conjugated dienes formed” value (LDL; FIG. 1c, copper alone 372) was 35 nmol/mg and the “decrease in the amount of conjugated dienes formed” value (LDL; FIG. 1c, versus copper alone) was 90%. For the same molecule, the plasma cholesterol [4] was “decrease”, the plasma triglycerides [4] was “decrease” and the Induction factor (PPARγ [5]; 0.01 μM) was 1.31. The Induction factor (PPARγ [5]; 0.03 μM) was 1.18, the Induction factor (PPARγ [5]; 0.1 μM) was 1.73 and the Induction factor (PPARγ [5]; 0.3 μM) was 4.58. For the same molecule, the Induction factor (PPARγ [5]; 1 μM) was 9.50, the Induction factor (PPARγ [5]; 3 μM) was 16.64 and the Induction factor (PPARγ [5]; 10 μM) was 31.00.
